Key:
Type in all cases: ADME
[1] = molecular target: T1, UDP-glucuronosyltransferase 1A3 (Homo sapiens, UniProt P35503); assay: Substrate of human UDP-glucuronosyltransferase UGT1A3
T1 sequence (P35503 whole entry): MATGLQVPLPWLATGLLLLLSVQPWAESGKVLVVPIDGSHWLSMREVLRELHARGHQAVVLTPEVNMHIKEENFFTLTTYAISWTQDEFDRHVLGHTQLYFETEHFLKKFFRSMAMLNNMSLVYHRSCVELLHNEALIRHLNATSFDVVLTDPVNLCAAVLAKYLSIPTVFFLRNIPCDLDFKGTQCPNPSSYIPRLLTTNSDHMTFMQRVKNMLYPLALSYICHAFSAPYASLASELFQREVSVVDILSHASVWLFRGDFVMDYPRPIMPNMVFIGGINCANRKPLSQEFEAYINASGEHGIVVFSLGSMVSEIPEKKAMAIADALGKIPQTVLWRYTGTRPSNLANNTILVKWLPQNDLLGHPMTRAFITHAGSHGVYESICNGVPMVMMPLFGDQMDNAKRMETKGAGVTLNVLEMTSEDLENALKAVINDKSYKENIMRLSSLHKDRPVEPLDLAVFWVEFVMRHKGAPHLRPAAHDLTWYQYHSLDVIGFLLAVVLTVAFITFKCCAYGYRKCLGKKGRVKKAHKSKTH

[2] = molecular target: T2, UDP-glucuronosyltransferase 1A6 (Homo sapiens, UniProt P19224); assay: Substrate of human UDP-glucuronosyltransferase UGT1A6
T2 sequence (P19224 whole entry): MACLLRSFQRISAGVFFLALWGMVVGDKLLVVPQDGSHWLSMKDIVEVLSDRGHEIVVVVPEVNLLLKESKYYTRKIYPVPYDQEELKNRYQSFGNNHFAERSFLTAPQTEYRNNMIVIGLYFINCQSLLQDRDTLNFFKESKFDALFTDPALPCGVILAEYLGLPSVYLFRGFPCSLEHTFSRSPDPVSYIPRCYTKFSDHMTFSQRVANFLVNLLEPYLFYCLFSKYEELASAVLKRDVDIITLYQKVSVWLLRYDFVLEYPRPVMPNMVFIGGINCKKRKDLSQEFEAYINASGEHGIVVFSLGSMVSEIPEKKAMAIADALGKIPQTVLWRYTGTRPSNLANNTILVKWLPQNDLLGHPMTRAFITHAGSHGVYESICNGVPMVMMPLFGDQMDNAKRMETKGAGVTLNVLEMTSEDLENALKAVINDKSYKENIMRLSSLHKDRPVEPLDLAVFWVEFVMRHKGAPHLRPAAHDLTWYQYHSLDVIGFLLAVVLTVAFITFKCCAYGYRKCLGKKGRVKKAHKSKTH

[3] = molecular target: T3, UDP-glucuronosyltransferase 1A9 (Homo sapiens, UniProt O60656); assay: Substrate of human UDP-glucuronosyltransferase UGT1A9
T3 sequence (O60656 whole entry): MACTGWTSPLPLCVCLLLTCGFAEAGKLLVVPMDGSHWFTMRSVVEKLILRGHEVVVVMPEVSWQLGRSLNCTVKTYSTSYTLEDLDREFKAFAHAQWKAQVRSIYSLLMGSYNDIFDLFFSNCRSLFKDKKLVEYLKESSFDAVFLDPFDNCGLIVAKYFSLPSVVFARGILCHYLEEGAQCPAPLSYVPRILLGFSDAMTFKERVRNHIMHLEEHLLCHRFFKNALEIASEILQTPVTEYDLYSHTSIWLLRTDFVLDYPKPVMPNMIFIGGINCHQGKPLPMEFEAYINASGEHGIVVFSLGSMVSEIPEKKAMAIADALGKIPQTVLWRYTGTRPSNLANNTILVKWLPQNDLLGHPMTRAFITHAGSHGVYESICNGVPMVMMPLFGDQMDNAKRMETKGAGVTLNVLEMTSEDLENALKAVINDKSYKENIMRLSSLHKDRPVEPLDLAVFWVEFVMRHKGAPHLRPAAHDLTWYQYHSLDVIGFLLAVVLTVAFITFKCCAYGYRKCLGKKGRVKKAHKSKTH

[4] = molecular target: UDP-glucuronosyltransferase 2A1 (Homo sapiens, UniProt P0DTE4); assay: Substrate of human UDP-glucuronosyltransferase UGT2A1
Sequence of UDP-glucuronosyltransferase 2A1 (P0DTE4 whole entry): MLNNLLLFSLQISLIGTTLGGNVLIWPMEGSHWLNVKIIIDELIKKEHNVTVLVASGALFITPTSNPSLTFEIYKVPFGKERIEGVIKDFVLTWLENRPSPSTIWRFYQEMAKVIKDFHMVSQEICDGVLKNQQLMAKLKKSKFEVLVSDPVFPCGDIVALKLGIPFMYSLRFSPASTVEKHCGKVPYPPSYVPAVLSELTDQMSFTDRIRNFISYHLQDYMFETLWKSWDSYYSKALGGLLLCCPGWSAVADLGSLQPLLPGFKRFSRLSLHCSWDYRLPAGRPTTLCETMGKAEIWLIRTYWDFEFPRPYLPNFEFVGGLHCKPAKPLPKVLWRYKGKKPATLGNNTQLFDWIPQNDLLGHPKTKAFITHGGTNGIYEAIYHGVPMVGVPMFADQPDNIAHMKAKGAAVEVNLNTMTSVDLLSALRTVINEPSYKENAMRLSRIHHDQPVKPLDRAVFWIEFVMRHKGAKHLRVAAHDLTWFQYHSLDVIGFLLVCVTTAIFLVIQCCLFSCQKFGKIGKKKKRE

[5] = molecular target: T4, UDP-glucuronosyltransferase 2B7 (Homo sapiens, UniProt P16662); assay: Substrate of human UDP-glucuronosyltransferase UGT2B7
T4 sequence (P16662 whole entry): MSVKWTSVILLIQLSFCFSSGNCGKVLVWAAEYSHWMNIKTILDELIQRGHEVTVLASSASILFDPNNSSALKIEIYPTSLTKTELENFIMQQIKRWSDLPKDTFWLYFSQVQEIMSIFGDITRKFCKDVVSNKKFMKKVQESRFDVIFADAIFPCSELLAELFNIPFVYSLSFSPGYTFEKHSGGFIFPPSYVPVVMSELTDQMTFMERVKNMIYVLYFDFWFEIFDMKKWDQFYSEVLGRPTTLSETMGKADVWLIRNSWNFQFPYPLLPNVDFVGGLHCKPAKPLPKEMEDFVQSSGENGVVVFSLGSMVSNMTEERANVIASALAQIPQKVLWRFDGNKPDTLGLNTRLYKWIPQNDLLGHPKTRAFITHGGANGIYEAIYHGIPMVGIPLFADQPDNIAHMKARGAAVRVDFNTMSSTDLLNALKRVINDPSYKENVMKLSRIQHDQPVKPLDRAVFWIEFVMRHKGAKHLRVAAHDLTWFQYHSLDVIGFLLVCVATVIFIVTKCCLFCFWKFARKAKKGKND

[6] = molecular target: T5, UDP-glucuronosyltransferase 2B17 (Homo sapiens, UniProt O75795); assay: Substrate of human UDP-glucuronosyltransferase UGT2B17
T5 sequence (O75795 whole entry): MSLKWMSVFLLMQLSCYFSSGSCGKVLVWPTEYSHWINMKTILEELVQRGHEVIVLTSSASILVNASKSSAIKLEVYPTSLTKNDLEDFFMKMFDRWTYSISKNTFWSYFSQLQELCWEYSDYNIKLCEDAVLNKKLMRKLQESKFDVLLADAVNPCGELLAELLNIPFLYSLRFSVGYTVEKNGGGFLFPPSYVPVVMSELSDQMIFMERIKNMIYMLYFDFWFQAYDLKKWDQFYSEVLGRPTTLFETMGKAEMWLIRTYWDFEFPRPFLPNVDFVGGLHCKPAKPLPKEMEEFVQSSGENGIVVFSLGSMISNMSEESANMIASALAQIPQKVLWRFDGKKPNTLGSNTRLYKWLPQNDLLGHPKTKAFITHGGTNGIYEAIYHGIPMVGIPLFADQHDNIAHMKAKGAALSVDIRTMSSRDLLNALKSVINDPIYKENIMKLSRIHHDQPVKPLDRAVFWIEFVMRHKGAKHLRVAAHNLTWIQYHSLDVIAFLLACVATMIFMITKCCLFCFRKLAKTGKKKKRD

[7] = molecular target: T6, UDP-glucuronosyltransferase 1A8 (Homo sapiens, UniProt Q9HAW9); assay: Substrate of human UDP-glucuronosyltransferase UGT1A8
T6 sequence (Q9HAW9 whole entry): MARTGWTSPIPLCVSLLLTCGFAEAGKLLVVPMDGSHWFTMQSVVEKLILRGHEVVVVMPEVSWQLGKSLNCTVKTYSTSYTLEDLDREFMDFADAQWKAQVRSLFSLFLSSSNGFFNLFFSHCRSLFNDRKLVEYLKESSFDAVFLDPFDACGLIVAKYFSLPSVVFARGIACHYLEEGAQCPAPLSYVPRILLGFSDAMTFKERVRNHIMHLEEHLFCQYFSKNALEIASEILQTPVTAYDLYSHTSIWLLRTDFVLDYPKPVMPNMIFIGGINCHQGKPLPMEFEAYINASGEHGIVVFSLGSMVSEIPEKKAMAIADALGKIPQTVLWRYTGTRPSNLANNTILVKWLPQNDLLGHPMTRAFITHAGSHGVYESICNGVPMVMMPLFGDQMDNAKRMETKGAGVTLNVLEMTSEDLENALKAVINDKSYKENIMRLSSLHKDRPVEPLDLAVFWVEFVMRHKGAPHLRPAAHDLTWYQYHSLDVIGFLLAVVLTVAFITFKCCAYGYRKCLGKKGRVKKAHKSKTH

Sulfotransferase 1E1 = molecular target: T7, Sulfotransferase 1E1 (Homo sapiens, UniProt P49888); assay: Major substrate of human cytosolic sulfotransferase SULT1E1
T7 sequence (P49888 whole entry): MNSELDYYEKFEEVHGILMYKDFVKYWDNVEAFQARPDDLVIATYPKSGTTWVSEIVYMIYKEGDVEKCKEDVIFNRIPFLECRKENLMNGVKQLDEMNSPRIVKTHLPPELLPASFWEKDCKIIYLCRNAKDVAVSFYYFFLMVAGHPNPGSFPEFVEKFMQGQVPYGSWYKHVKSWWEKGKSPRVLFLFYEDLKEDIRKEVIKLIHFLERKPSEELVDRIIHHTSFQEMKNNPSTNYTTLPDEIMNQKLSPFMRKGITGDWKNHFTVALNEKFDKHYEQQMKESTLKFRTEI

Sulfotransferase 2A1 = molecular target: T8, Sulfotransferase 2A1 (Homo sapiens, UniProt Q06520); assay: Major substrate of human cytosolic sulfotransferase SULT2A1
T8 sequence (Q06520 whole entry): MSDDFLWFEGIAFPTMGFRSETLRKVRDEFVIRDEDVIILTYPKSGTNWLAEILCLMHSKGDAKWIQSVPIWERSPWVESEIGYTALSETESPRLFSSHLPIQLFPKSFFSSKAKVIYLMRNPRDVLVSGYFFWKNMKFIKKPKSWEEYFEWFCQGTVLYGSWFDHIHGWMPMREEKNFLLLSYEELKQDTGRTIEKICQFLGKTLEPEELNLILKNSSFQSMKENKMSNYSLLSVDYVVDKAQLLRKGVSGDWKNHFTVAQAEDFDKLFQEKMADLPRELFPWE

Sulfotransferase 1A1 = Sulfotransferase 1A1 (Homo sapiens, UniProt P50225); assay: Major substrate of human cytosolic sulfotransferase SULT1A1
Sequence of Sulfotransferase 1A1 (P50225 whole entry): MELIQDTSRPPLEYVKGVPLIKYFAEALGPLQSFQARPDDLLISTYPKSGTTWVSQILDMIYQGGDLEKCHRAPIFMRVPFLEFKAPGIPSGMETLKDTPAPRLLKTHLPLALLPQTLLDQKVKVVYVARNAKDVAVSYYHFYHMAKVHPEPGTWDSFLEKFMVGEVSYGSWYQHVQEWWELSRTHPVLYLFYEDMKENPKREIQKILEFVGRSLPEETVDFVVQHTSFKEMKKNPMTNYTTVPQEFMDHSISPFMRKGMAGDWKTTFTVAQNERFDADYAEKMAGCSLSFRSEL

[8] = molecular target: UDP-glucuronosyltransferase 2B28 (Homo sapiens, UniProt Q9BY64); assay: Substrate of human UDP-glucuronosyltransferase UGT2B28
Sequence of UDP-glucuronosyltransferase 2B28 (Q9BY64 whole entry): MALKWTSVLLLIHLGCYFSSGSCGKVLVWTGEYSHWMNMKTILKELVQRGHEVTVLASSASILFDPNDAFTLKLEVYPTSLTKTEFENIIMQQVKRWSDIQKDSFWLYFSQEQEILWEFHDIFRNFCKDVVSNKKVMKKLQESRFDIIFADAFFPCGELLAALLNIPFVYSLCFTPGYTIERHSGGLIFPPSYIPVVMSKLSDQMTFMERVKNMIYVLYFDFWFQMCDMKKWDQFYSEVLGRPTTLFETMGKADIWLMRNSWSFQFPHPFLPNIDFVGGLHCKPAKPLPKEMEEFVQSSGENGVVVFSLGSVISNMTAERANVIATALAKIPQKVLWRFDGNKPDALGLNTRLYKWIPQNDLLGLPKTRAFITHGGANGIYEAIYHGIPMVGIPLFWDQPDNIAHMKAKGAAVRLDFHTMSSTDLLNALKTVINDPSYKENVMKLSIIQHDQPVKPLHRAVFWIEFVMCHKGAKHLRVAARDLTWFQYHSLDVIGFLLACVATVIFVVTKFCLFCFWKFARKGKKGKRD

Leukotriene C4 synthase = Leukotriene C4 synthase (Homo sapiens, UniProt Q16873); assay: Substrates for human microsomal glutathione transferase LTC4S
Sequence of Leukotriene C4 synthase (Q16873 whole entry): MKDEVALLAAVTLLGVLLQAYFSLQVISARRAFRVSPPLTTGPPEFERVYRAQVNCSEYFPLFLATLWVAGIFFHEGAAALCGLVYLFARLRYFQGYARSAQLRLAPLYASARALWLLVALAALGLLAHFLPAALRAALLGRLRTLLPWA

[9] = molecular target: Microsomal glutathione S-transferase 2 (Homo sapiens, UniProt Q99735); assay: Substrates for human microsomal glutathione transferase MGST2
Sequence of Microsomal glutathione S-transferase 2 (Q99735 whole entry): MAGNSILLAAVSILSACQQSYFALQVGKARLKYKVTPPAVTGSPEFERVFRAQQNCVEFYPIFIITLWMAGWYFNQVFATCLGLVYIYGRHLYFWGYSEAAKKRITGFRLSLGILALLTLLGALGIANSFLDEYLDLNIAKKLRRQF

[10] = molecular target: Glutathione S-transferase 3, mitochondrial (Homo sapiens, UniProt O14880); assay: Substrates for human microsomal glutathione transferase MGST3
Sequence of Glutathione S-transferase 3, mitochondrial (O14880 whole entry): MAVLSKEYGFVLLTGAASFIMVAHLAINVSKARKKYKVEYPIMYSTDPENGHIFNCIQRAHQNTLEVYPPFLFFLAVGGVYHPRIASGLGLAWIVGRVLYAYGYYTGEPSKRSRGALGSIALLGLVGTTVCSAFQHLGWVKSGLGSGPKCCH

[11] = molecular target: T9, Glutathione S-transferase kappa 1 (Homo sapiens, UniProt Q9Y2Q3); assay: Substrates for human mitochondrial glutathione transferase GSTK1
T9 sequence (Q9Y2Q3 whole entry): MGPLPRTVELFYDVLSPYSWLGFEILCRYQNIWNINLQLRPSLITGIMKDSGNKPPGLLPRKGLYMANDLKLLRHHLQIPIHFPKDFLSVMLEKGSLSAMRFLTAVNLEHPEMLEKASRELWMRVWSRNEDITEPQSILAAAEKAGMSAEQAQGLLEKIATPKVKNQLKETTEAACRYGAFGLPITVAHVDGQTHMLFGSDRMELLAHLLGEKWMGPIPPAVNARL

[12] = molecular target: Glutathione S-transferase Mu 4 (Homo sapiens, UniProt Q03013); assay: Substrates for human cytosolic glutathione transferase GSTM4
Sequence of Glutathione S-transferase Mu 4 (Q03013 whole entry): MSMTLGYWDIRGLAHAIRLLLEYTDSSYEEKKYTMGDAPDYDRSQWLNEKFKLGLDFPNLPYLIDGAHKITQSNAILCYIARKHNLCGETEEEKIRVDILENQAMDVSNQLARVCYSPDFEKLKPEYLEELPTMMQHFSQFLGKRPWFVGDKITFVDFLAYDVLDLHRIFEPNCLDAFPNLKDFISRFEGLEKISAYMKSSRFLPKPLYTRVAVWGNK

[13] = molecular target: Glutathione S-transferase Mu 5 (Homo sapiens, UniProt P46439); assay: Substrates for human cytosolic glutathione transferase GSTM5
Sequence of Glutathione S-transferase Mu 5 (P46439 whole entry): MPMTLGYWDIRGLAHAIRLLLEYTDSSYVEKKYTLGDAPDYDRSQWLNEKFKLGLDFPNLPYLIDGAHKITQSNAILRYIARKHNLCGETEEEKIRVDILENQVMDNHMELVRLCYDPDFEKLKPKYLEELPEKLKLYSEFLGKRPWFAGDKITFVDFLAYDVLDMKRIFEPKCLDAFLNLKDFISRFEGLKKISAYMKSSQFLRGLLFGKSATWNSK

[14] = molecular target: T10, Microsomal glutathione S-transferase 1 (Homo sapiens, UniProt P10620); assay: Substrates for human microsomal glutathione transferase MGST1
T10 sequence (P10620 whole entry): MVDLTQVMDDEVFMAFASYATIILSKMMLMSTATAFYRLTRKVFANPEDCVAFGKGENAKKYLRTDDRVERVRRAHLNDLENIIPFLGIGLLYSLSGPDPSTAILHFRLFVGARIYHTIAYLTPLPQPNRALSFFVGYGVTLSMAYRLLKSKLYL

[15] = molecular target: Glutathione S-transferase omega-1 (Homo sapiens, UniProt P78417); assay: Substrates for human cytosolic glutathione transferase GSTO1
Sequence of Glutathione S-transferase omega-1 (P78417 whole entry): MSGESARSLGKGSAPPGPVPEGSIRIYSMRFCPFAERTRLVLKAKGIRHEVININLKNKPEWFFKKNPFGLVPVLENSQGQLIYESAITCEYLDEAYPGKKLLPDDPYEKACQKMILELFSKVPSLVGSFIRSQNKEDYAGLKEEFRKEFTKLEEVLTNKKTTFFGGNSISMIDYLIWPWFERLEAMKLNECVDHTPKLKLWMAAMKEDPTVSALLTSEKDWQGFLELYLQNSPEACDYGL

[16] = molecular target: Glutathione S-transferase omega-2 (Homo sapiens, UniProt Q9H4Y5); assay: Substrates for human cytosolic glutathione transferase GSTO2
Sequence of Glutathione S-transferase omega-2 (Q9H4Y5 whole entry): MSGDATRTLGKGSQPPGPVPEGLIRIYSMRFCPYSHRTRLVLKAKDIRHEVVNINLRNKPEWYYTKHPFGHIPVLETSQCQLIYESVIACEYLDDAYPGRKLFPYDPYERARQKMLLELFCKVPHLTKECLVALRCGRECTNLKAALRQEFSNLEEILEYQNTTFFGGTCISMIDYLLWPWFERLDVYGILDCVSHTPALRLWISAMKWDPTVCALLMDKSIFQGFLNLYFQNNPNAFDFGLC

Measured: Activity

CC(C)Cc1ccc(C(C)C(=O)O)cc1 (stereo not drawn) [IBUPROFEN]
Substrate: [1] | [2] | [3] | [4] | [5] | [6]

CCCC(CCC)C(=O)O [VALPROIC ACID]
Substrate: [1] | [7] | [4] | [5]

C[C@]12CC[C@@H]3c4ccc(O)cc4CC[C@H]3[C@@H]1CC[C@@H]2O [ESTRADIOL]
Substrate: Sulfotransferase 1E1 | Sulfotransferase 2A1 | Sulfotransferase 1A1 | [1] | [8]

CCCCC/C=C\C\C=C/C=C/C=C/[C@@H]1O[C@H]1CCCC(=O)O [LEUKOTRIENE A4]
Substrate: Leukotriene C4 synthase | [9] | [10]

C[C@]12CC[C@H]3[C@@H](CCC4=CC(=O)CC[C@@]43C)[C@@H]1CC[C@@H]2O [TESTOSTERONE]
Substrate: Sulfotransferase 2A1 | [8]

O=[N+]([O-])c1ccc(Cl)c([N+](=O)[O-])c1 [DINITROCHLOROBENZENE]
Substrate: [11] | [12] | [13] | [14] | [9] | [10]

O=C1OC(C(O)CO)C(=O)C1=O (stereo not drawn) [DEHYDROASCORBIC ACID]
Substrate: [15] | [16]

From ChEMBL document CHEMBL1743201, “Casarett and Doull's Toxicology The Basic Science of Poisons, 7th edition” (2008)
